Patent publication US20230165970A1, “COMPOSITIONS AND METHODS FOR THE TREATMENT OF BACTERIAL INFECTIONS” (priority 2017, published 2023)
Converted amounts (≈) assume the structure as drawn. Like-named read-outs stand apart in the source and are kept apart here. *1 amine or outer side, *2 acyl side, *3 side chain or, on linkers, in order; H or OH if unused. Where a SMILES comes first, the peptide text is derived from it. Bridges are numbered along the chain shown (N, C = ends). Roman numbers before positions name the chains, in order. [ ]: non-standard residue; d: D form. X6 = C#CCOCCOCCOCCOCCCN1C[C@@H](C(=O)[*:1])[C@H](C(=O)[*:2])C1; Nle = CCCC[C@H](N)C(=O)O; Dab = NCC[C@H](N)C(=O)O; azaGly = NNC(=O)O

What was measured:
Sa RN = assay type: cell-based
[1] = test system: Ab AB58705 (COL^R) IpxD, mut. (no LPS); assay type: cell-based, Acinetobacter baumannii; conditions: media CA-MHB
Ec AR0349 (mcr-1, COL^R) = assay type: cell-based, Escherichia coli; conditions: media CA-MHB
Ec 25922 64X-1 (COL^R) = assay type: cell-based, Escherichia coli; conditions: media CA-MHB
Kp 10031 = assay type: cell-based, Klebsiella pneumoniae
Outline: (§1)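 Strains are exposed to 8- or 12-step twofold compound dilutions, conjugates being assayed in RPMI B. For Pa LES431, parallel runs include 50% heat-inactivated FBS. Plates incubate overnight, 16-20 h at 35° C.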

Kp 6951 (COL^R) = assay type: cell-based, Klebsiella pneumoniae
Outline: as §1

Kp 43816 = assay type: cell-based, Klebsiella pneumoniae
Outline: as §1

Ab AB5075 = assay type: cell-based, Acinetobacter baumannii
Outline: as §1

Ab 8990 (COL^R) = assay type: cell-based, Acinetobacter baumannii
Outline: as §1

Ab 19606 (COLhet^R) = assay type: cell-based, Acinetobacter baumannii; conditions: media CA-MHB
Ec 25922 = assay type: cell-based, Escherichia coli
Outline: as §1

Ec 2469 = assay type: cell-based, Escherichia coli
Outline: as §1

[2] = test system: Ec COL^R LPS: colistin-resistant (MCR-1) strain (AR0349); assay: Lethal mouse endotoxemia model (LD95 purified LPS IP); assay type: in vivo, C57BL/6J mice; conditions: (D) Endotoxemia (Ec COL^R LPS); 5 mg/kg IV, single, -1 hr; survival after three days
Method: Studies (B)-(D) shown in Table 22 summarizes the efficacy of compounds in lethal models of endotoxemia. In these models 6 week old C57I/6J immune competent mice (Jackson Laboratory) were challenged IP with purified lipopolysaccharide (LPS) in PBS at an LD95. For all studies, LPS was obtained from Sigma (catalog numbers in the table footnote) or were purified using a kit obtained from iNtRON Biotechnology Inc. (cat #17141). One hour prior to LPS challenge mice were dosed with test articles as indicated (Table 22). The results of these studies indicate that compounds are able to neutralize the lethal effects of LPS in a severe endotoxemia/sepsis model.
End point was survival after 3 days. Ec: E. coli 0111:B34, Sigma cat #L4130; Ab: Acinetobacter baumannii 5075; Kp: Klebsiella pneumonia 10, Sigma cat #L4268; Ng: Neisseria gonorrhoeae 19424; Ec 026:B86, Sigma cat #L2762; Pm: Proteus mirabilis, Sigma cat #SMB00704; Sm: Serratia marcescens, Sigma cat #L6016; Pa: Pseudomonas aeruginosa 10. […] Purified LPS used for all endotoxemia studies and if not denoted by a Sigma catalog number the LPS was purified in-house using an iNtRON #17141 purification kit. *Delayed death, at the time Fc only animals reached 100% mortality all Conjugate 41 mice were still alive.

Pa 27853 = assay type: cell-based, Pseudomonas aeruginosa
Outline: as §1

Pa PAO1 = assay type: cell-based, Pseudomonas aeruginosa
Outline: as §1

Pa LES431 = assay type: cell-based, Pseudomonas aeruginosa
Outline: as §1

E. coli 25922 = conditions: 3.0 mg/kg IP qd at T+1 hour; 72 hours after bacterial challenge; N=3
Method: In vivo screening of selected compounds was accomplished in an E. coli bacteremia model (N=3). Efficacy was assessed in an animal model of infection using CD-1 mice by evaluating bacteremia in immune competent mice challenged with 2× the LD95 of E. coli 25922 (dosed qd, intraperitoneally (IP) at T+1 hour, survival endpoint).
Colistin (COL) and Int-17 were dosed at 0.3 mg/kg and Int-41 was dosed at 3.0 mg/kg. Percent survival was determined 72 hours after bacterial challenge. Compounds with MICs against E. coli 25922 of less than 4 μg/ml were evaluated in the bacteremia model.
Int-115 and Int-118 were evaluated for potency in a lethal model of bacteremia. […] Test articles were dissolved in 1× PBS and injected IV at a dose volume of 10 ml/kg one hour following bacterial challenge. Animals were monitored twice daily and mortality scored over three days.
CD-1 mice were used for bacteremia, C57BL/6J mice for endotoxemia. The endpoint was survival after three days for both models.

A. baumannii AB5075 = assay: A. baumannii lung infection model, lung CFU burden (C57Bl/6J mice); assay type: in vivo, Acinetobacter baumannii; conditions: 24 h time point; conjugates 50 mpk IP at t=−12 h and t=+1 h; AZM 25 mpk SC once at t=+1 h; n=5
Method: A. baumannii AB5075 was grown to log-phase in LB at 37° C., 200 rpm shaking. Bacteria were washed once with PBS via centrifugation at 4,000 rpm. Bacteria were adjusted to desired concentration in PBS.
Prior to infection, 8-week-old female C57BI/6J mice (Jackson Labs) were anesthetized with 100 mg/kg ketamine and 10 mg/kg xylazine. Using an otoscope, mice were infected directly into the trachea. For CFU burden studies mice were infected with 2×10^7 CFU in 30 μL PBS. At 24 h post-infection mice were sacrificed by CO2 and both lung lobes were harvested. Lungs were homogenized with 1 mm silica beads in 1 mL PBS using a MagNA Lyser (Roche). Homogenization was carried out at 6,000 rpm for 60 s and chilled on ice for 60 s in-between runs. Lung homogenate was diluted in PBS ranging from 10^−1 to 10^−8, plated on LB plates and incubated at 37° C. overnight. The next day. CFU were enumerated and surviving CFU calculated relative to weight of the lung. […] Conjugates or hIgG1 (50 mpk) were administered intraperitoneally at t=−12 h pre-infection and t=+1 h post-infection. Azithromycin (Fresenius-Kabi) was administered subcutaneously once at t=+1 h post-infection. Efficacy of ADC conjugates (50 mpk) was determined upon intratracheal infection of A. baumannii AB5075. For CFU burden studies, mice (n=5 per group) were infected with 3×10^7 bacteria, sacrificed and lung CFU burden determined at 24 h time point.

C#CCOCCOCCOCCOCCCN1C[C@@H](C(=O)N[C@@H](CCCC)C(=O)N[C@@H](CCN)C(=O)N[C@H](C(=O)NNC(=O)N[C@H]2CCNC(=O)[C@H]([C@@H](C)O)NC(=O)[C@H](CCN)NC(=O)[C@H](CCN)NC(=O)[C@H](CC(C)C)NC(=O)[C@@H](Cc3ccccc3)NC(=O)[C@H](CCN)NC2=O)[C@@H](C)O)[C@H](C(=O)N[C@@H](CCCC)C(=O)N[C@@H](CCN)C(=O)N[C@H](C(=O)NNC(=O)N[C@H]2CCNC(=O)[C@H]([C@@H](C)O)NC(=O)[C@H](CCN)NC(=O)[C@H](CCN)NC(=O)[C@H](CC(C)C)NC(=O)[C@@H](Cc3ccccc3)NC(=O)[C@H](CCN)NC2=O)[C@@H](C)O)C1 [Int-122] (I: [Nle][Dab]T[azaGly][Dab][Dab][dF]L[Dab][Dab]T / II: [Nle][Dab]T[azaGly][Dab][Dab][dF]L[Dab][Dab]T; lactam I:5-I:C, II:5-II:C; linker I:N-II:N via X6)
MIC (Sa RN): >128 µg/mL | MIC [1]: 2 µg/mL (≈ 0.763 µM) | MIC (Ec AR0349 (mcr-1, COL^R)): 2 µg/mL (≈ 0.763 µM) | MIC (Ec 25922 64X-1 (COL^R)): 2 µg/mL (≈ 0.763 µM) | MIC (Kp 10031; Kp 10031, media CA-MHB): 2 µg/mL (≈ 0.763 µM) | MIC (Kp 6951 (COL^R); Kp 6951 (COL^R), media CA-MHB): 8 µg/mL (≈ 3.05 µM) | MIC (Kp 43816; Kp 43816, media CA-MHB): 2 µg/mL (≈ 0.763 µM) | MIC (Ab AB5075; Ab AB5075, media CA-MHB): 2 µg/mL (≈ 0.763 µM) | MIC (Ab 8990 (COL^R); Ab 8990 (COL^R), media CA-MHB): >128 µg/mL | MIC (Ab 19606 (COLhet^R)): 2 µg/mL (≈ 0.763 µM) | MIC (Ec 25922; Ec 25922 + FBS (50%, heat-inactivated), media CA-MHB): 0.25 µg/mL | MIC (Ec 25922; Ec 25922, media CA-MHB): 2 µg/mL (≈ 0.763 µM) | MIC (Ec 2469; Ec 2469, media CA-MHB): 2 µg/mL (≈ 0.763 µM) | % survival [2]: 80% | MIC (Pa 27853; Pa 27853, media CA-MHB): 4 µg/mL (≈ 1.53 µM) | MIC (Pa PAO1; Pa PAO1, media CA-MHB): 4 µg/mL (≈ 1.53 µM) | MIC (Pa LES431; Pa LES431 + FBS (50%, heat-inactivated), media CA-MHB): 8 µg/mL | MIC (Pa LES431; Pa LES431, media CA-MHB): 2 µg/mL (≈ 0.763 µM)

C#CCOCCOCCOCCOCCCNC(=O)CN(CC(=O)N[C@@H](CCCC)C(=O)N[C@@H](CCN)C(=O)N[C@H](C(=O)N[C@@H](CCN)C(=O)N[C@H]1CCNC(=O)[C@H]([C@@H](C)O)NC(=O)[C@H](CCN)NC(=O)[C@H](CCN)NC(=O)[C@H](CC(C)C)NC(=O)[C@@H](Cc2ccccc2)NC(=O)[C@H](CCN)NC1=O)[C@H](O)CCC)C(=C)N[C@@H](CCCC)C(=O)N[C@@H](CCN)C(=O)N[C@H](C(=O)N[C@@H](CCN)C(=O)N[C@H]1CCNC(=O)[C@H]([C@@H](C)O)NC(=O)[C@H](CCN)NC(=O)[C@H](CCN)NC(=O)[C@H](CC(C)C)NC(=O)[C@@H](Cc2ccccc2)NO[C@H](CCN)NC1=O)[C@H](O)CCC [Int-41]
MIC (Sa RN): >128 µg/mL | MIC (Ec AR0349 (mcr-1, COL^R)): 4 µg/mL (≈ 1.45 µM) | MIC (Ec 25922 64X-1 (COL^R)): 4 µg/mL (≈ 1.45 µM) | MIC (Kp 10031): 4 µg/mL (≈ 1.45 µM) | MIC (Kp 6951 (COL^R)): 16 µg/mL (≈ 5.79 µM) | MIC (Kp 43816): 4 µg/mL (≈ 1.45 µM) | % Survival (IP, QD) (E. coli 25922): 67% | MIC (Ab AB5075): 4 µg/mL (≈ 1.45 µM) | MIC (Ab 8990 (COL^R)): 128 µg/mL (≈ 46.3 µM) | MIC (Ab 19606 (COLhet^R)): 4 µg/mL (≈ 1.45 µM) | MIC (Ec 25922): 4 µg/mL (≈ 1.45 µM) | MIC E. coli ATCC 25922, No serum (Ec 25922): 4 µg/mL (≈ 1.45 µM) | MIC E. coli ATCC 25922, Serum (Ec 25922): 1 µg/mL (≈ 0.362 µM) | MIC (Ec 2469): 2 µg/mL (≈ 0.724 µM) | MIC (Pa 27853): 2 µg/mL (≈ 0.724 µM) | MIC (Pa PAO1; PAO1): 2 µg/mL (≈ 0.724 µM) | MIC (Pa LES431): 2 µg/mL (≈ 0.724 µM)

CC[C@H]1OC(=O)[C@H](C)[C@@H](O[C@H]2C[C@@](C)(OC)[C@@H](O)[C@H](C)O2)[C@H](C)[C@@H](O[C@@H]2O[C@H](C)C[C@H](N(C)C)[C@H]2O)[C@](C)(O)C[C@@H](C)CN(C)[C@H](C)[C@@H](O)[C@]1(C)O [azithromycin (AZM), azithromycin, reference compound]
reduction of lung CFU burden (A. baumannii AB5075): 0.76 logs
